Assay results published in article PMC6327980 (Journal of Enzyme Inhibition and Medicinal Chemistry, 2018).
Where two headings read alike, the source gives them in different places.

Experiments:
BpsCAγ = biological target: T1, BpsCAγ; assay type: biochemical, Burkholderia pseudomallei
T1 construct: gene BpsCAgamma

BpsCAβ = biological target: T2, BpsCAβ (Burkholderia pseudomallei, UniProt Q63Y17); assay type: biochemical; conditions: read-out: BpsCAβ
T2 construct: gene BPSL0372

VchCAβ = biological target: T3, VchCAβ (Vibrio cholerae, UniProt Q9KUD6); test: biochemical
T3 construct: gene VC_0586

VchCAα = biological target: T4, VchCAα (Vibrio cholerae, UniProt Q9KMP6); test: biochemical
T4 construct: gene VC_A0274
T4 sequence (Q9KMP6 21-239 limits assumed): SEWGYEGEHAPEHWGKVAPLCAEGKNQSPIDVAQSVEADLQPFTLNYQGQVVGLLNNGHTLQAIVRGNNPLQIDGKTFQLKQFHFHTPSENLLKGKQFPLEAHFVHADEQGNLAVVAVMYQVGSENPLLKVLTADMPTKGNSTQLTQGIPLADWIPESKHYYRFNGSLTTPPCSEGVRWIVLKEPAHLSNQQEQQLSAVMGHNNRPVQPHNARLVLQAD

T3 sequence (Q9KUD6 1-222): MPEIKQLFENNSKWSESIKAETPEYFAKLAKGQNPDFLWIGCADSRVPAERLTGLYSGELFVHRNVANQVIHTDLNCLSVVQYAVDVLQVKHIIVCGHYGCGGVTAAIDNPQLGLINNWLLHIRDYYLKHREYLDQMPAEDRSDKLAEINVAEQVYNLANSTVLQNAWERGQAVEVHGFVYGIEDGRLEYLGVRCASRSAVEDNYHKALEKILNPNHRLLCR
T2 sequence (Q63Y17 1-256): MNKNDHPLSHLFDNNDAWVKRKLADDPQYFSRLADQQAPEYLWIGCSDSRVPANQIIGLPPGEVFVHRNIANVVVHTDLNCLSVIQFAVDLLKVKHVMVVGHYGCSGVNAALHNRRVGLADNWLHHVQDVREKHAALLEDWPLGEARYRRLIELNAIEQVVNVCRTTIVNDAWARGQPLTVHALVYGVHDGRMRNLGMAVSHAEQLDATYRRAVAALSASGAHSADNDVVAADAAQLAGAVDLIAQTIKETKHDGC

SMILES	Ki (BpsCAγ; read-out: VchCAγ) [µM]	Ki (BpsCAβ) [µM]	Ki (VchCAβ) [µM]	Ki (VchCAα) [µM]	Ki (BpsCAγ; read-out: BpsCAγ) [µM]
NS(=O)(=O)c1ccc(-c2ncc(C[Te]c3ccccc3)[se]2)cc1 [9a]	8.9	0.92	7.7	0.94	
COc1ccc([Te]Cc2cnc(-c3ccc(S(N)(=O)=O)cc3)[se]2)cc1 [9c]			9.08	0.77	
Cc1ccc([Te]Cc2cnc(-c3ccc(S(N)(=O)=O)cc3)[se]2)cc1 [9b]	7.6	0.32	7.72	0.47	
NS(=O)(=O)c1ccc(-c2ncc(C[Se]c3ccccc3)[se]2)cc1 [10a]			8.84	0.87	
N=C(N)SCc1cnc(-c2ccc(S(N)(=O)=O)cc2)[se]1 [compound 11, 11]			9.12	0.44	6.55
Cc1ccc([Se]Cc2cnc(-c3ccc(S(N)(=O)=O)cc3)[se]2)cc1 [10b]			8.59	0.46	
COc1ccc([Se]Cc2cnc(-c3ccc(S(N)(=O)=O)cc3)[se]2)cc1 [10c]			6.79	0.92	
